Reference: the supplement of paper PMC12076712

How the values were obtained:
Test in all cases: pIC50, kinobeads binding competition
STK33 = STK33 (UniProt Q9BYT3)
Outline: (§1)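 Jurkat cells were exposed alive to nine compound concentrations (top 30 μM, 1:4 steps) or vehicle for 60 min at 37 °C and then lysed. In a second format, nine concentrations (top 30 μM, 1:5 steps) were incubated for 60 min at 4 °C with Jurkat lysate or with a 1:1:1:1 lysate mix of HEK293, K-562, HepG2 and placenta. Proteins captured on Kinobeads were digested and quantified by TMT10 LC-MS/MS. pIC50 values were derived from logistic dose-response fits (R drc package) of fold changes relative to vehicle, in biological duplicates.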

PIM3 = PIM3 (UniProt Q86V86)
Outline: as §1

UniProt P36507 = biological target: UniProt P36507
UniProt P36507, sequence (P36507 whole entry): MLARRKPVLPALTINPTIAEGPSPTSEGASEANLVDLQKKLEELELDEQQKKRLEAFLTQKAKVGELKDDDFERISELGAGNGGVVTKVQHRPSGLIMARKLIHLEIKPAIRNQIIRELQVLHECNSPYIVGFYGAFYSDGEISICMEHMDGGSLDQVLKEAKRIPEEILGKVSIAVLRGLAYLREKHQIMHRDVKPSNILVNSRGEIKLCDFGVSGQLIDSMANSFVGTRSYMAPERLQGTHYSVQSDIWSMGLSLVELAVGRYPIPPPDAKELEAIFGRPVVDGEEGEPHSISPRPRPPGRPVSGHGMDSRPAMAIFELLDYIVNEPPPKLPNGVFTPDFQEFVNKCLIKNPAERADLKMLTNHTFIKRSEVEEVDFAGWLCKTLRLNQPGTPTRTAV
Outline: as §1

UniProt Q15208 = biological target: UniProt Q15208
UniProt Q15208, sequence (Q15208 whole entry, looked up): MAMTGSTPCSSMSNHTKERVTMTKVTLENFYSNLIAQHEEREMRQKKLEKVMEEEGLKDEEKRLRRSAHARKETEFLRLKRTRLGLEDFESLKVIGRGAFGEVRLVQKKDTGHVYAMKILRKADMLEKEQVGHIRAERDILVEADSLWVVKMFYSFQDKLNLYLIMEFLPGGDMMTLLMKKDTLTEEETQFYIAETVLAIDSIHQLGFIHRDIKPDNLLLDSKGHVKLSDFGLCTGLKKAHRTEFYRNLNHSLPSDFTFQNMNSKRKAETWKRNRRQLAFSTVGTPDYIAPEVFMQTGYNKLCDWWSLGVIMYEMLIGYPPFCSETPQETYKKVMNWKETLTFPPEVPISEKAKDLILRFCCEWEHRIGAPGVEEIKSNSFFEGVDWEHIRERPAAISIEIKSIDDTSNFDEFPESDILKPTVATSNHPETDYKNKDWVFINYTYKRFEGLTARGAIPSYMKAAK
Outline: as §1

MAPK11 = MAPK11 (UniProt Q15759)
MAPK11, sequence (Q15759 whole entry): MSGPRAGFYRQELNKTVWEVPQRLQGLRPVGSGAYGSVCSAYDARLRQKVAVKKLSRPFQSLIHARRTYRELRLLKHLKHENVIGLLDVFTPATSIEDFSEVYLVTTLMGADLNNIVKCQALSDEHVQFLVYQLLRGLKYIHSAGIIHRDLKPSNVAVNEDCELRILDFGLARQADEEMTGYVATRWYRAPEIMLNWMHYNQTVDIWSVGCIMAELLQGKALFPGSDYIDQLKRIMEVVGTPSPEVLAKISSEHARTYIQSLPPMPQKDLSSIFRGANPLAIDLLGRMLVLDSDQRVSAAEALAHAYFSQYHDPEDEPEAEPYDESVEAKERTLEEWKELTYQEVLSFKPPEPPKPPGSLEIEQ
Outline: as §1

FGFR4 = FGFR4 (UniProt P22455); conditions: cell material: Lysate mix
FGFR4, sequence (P22455 whole entry, looked up): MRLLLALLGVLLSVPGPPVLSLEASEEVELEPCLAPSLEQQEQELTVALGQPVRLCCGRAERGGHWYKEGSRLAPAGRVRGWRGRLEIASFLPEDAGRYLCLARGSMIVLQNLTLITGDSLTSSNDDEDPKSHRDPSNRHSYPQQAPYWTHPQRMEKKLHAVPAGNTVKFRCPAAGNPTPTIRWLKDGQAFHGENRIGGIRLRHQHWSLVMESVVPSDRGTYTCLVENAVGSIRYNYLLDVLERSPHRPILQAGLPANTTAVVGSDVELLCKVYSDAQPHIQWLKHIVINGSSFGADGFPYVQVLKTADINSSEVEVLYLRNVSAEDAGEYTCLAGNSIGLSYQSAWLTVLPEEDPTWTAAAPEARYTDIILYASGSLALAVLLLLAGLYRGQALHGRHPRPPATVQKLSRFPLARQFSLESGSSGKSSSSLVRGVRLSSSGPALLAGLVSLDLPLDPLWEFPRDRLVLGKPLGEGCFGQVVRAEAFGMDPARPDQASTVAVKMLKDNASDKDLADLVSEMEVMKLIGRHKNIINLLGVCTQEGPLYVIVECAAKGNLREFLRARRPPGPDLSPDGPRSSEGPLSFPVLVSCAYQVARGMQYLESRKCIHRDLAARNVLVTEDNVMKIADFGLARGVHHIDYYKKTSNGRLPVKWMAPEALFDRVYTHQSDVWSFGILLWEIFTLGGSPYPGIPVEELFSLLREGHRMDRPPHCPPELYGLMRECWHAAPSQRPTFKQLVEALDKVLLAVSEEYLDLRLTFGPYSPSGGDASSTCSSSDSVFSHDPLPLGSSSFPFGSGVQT
Outline: as §1

DDR2 = biological target: T1, DDR2 (UniProt Q16832); conditions: cell material: Lysate mix
T1 sequence (whole entry): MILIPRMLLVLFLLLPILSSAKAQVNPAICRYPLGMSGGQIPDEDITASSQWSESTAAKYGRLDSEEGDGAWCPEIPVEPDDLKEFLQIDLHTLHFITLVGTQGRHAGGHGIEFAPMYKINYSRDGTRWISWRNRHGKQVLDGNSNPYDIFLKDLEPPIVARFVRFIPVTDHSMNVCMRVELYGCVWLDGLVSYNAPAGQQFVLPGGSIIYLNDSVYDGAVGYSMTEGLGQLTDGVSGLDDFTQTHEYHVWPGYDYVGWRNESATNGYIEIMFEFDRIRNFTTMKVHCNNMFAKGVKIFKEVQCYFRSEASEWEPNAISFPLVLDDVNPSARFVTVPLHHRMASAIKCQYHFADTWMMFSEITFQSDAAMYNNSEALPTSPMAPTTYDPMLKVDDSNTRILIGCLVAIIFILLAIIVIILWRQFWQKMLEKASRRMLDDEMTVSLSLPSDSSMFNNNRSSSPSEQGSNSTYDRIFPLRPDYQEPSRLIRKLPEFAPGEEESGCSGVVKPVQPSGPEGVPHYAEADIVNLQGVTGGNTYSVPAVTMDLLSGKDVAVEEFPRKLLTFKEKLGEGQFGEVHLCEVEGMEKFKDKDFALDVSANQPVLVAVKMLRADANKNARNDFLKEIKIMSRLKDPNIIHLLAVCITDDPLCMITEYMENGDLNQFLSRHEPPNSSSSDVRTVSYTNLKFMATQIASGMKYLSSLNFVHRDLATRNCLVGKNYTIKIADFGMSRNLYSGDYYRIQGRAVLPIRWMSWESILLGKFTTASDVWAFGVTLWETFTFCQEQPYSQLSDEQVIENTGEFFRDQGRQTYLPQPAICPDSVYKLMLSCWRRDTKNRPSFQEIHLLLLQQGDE
Outline: as §1

MAPK14 = MAPK14 (UniProt Q16539)
MAPK14, sequence (Q16539 whole entry): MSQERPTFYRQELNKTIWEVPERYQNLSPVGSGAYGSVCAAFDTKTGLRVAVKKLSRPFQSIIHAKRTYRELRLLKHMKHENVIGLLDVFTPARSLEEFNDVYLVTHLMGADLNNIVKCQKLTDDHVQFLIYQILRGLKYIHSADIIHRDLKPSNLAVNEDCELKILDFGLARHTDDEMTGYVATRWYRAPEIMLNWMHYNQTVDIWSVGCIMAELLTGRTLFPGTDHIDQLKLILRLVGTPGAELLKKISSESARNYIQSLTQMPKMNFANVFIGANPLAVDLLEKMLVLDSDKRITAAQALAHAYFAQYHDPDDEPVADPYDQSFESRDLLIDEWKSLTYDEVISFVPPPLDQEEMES
Outline: as §1

BMPR2 = biological target: T2, BMPR2 (UniProt Q13873)
T2 sequence (whole entry): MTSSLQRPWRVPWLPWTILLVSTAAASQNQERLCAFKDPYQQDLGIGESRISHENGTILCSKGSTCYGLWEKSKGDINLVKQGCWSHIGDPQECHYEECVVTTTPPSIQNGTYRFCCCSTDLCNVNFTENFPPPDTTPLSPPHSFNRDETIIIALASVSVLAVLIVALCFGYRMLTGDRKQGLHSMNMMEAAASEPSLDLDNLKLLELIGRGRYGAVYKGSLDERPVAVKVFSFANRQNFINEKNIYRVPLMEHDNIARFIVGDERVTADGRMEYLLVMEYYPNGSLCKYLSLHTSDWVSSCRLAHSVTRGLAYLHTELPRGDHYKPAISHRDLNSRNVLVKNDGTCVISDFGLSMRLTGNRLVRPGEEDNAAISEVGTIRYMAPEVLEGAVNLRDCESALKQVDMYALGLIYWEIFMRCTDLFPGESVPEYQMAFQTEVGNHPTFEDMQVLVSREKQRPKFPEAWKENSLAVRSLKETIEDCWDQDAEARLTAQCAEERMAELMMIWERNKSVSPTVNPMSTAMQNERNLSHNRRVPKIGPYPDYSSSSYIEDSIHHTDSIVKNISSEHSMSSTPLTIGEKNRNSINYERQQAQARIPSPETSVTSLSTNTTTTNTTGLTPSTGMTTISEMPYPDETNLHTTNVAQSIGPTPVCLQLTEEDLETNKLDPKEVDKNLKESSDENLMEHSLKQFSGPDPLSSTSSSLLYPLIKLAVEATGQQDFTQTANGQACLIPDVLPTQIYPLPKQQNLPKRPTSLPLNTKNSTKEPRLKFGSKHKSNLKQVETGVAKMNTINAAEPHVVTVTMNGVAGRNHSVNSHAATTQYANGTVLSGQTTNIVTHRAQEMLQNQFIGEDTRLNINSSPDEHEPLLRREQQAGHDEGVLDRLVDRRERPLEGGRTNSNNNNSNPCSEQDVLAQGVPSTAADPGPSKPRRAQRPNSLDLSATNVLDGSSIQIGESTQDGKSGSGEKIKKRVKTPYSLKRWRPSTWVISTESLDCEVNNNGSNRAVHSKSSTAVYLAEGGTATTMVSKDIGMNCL
Outline: as §1

IRAK1 = IRAK1 (UniProt P51617)
IRAK1, sequence (P51617 whole entry, looked up): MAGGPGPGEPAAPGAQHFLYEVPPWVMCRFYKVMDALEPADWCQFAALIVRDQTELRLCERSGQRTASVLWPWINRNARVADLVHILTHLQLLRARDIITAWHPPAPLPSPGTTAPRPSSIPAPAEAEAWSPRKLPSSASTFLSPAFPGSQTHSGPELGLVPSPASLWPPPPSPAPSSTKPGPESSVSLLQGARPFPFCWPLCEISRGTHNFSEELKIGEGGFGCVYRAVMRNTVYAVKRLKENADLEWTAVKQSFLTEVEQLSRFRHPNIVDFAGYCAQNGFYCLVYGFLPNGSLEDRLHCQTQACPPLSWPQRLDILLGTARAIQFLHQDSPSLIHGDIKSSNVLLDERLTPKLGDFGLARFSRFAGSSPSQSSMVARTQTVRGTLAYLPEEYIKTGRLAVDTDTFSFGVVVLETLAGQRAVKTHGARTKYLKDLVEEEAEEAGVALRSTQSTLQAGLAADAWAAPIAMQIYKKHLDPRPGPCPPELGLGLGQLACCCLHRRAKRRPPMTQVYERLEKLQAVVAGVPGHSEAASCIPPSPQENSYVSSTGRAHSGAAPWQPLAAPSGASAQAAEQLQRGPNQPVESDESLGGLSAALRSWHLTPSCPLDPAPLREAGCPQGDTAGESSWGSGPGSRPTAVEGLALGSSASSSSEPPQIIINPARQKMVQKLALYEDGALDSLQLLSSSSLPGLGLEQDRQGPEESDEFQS
Outline: as §1

TESK1 = TESK1 (UniProt Q15569)
TESK1, sequence (Q15569 whole entry, looked up): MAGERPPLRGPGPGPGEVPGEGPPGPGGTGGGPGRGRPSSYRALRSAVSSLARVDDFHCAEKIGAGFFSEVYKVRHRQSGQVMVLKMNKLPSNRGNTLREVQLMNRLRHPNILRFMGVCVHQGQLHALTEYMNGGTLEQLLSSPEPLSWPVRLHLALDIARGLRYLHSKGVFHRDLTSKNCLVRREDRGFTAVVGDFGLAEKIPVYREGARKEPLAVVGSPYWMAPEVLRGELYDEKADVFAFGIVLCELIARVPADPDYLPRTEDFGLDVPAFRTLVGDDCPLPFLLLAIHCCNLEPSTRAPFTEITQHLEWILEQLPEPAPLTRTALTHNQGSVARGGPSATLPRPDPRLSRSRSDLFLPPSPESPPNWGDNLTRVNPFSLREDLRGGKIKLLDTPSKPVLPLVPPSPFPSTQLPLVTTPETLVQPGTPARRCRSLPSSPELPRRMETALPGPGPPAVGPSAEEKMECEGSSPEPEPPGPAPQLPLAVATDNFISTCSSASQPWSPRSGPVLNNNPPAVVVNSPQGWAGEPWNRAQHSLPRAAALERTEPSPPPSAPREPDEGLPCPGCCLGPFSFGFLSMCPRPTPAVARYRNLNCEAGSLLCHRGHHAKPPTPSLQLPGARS
Outline: as §1

ACVR2B = ACVR2B (UniProt Q13705)
ACVR2B, sequence (Q13705 whole entry): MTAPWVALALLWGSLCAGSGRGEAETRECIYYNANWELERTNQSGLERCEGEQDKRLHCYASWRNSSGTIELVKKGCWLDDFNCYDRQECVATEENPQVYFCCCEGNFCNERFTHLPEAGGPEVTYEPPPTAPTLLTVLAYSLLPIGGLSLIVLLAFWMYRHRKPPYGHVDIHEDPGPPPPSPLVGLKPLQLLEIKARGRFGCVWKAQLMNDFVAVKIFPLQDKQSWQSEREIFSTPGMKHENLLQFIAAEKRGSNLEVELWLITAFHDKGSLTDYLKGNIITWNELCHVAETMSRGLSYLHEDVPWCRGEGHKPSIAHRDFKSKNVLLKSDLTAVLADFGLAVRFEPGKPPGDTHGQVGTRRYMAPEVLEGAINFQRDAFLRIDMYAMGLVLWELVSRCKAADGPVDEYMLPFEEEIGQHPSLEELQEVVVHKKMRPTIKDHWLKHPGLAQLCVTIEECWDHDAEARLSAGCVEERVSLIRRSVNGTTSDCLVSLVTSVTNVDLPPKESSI
Outline: as §1

TP53RK = biological target: T3, TP53RK (UniProt Q96S44)
T3 sequence (whole entry): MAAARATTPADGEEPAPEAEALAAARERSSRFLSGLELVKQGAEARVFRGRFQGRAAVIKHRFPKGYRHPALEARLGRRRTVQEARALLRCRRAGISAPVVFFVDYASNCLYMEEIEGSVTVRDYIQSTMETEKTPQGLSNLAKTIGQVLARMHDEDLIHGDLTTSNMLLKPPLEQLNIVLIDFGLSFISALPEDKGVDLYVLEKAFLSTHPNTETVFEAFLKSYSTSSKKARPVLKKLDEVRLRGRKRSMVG
Outline: as §1

STK33, sequence (Q9BYT3 whole entry, looked up): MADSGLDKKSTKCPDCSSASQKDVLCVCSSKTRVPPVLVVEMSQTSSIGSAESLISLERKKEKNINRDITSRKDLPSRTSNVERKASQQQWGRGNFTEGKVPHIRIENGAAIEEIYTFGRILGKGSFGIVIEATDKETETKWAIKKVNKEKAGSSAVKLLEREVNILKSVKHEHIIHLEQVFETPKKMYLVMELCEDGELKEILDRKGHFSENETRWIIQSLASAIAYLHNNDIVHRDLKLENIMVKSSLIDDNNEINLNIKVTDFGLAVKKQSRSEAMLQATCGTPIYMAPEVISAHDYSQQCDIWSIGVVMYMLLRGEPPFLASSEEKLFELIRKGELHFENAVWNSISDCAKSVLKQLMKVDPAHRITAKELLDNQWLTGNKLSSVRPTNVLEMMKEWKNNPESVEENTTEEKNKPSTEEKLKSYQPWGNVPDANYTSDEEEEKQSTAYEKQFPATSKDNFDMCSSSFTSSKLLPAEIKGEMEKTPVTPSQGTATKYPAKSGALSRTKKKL

Structure (SMILES)	pIC50 (STK33; cell material: Jurkat cells)	pIC50 (STK33; cell material: Jurkat lysate)	pIC50 (STK33; cell material: Lysate mix)	pIC50 (PIM3; cell material: Jurkat cells)	pIC50 (PIM3; cell material: Jurkat lysate)	pIC50 (PIM3; cell material: Lysate mix)	pIC50 (UniProt P36507; cell material: Jurkat cells)	pIC50 (UniProt P36507; cell material: Jurkat lysate)	pIC50 (UniProt P36507; cell material: Lysate mix)	pIC50 (UniProt Q15208; cell material: Jurkat cells)	pIC50 (UniProt Q15208; cell material: Jurkat lysate)	pIC50 (UniProt Q15208; cell material: Lysate mix)	pIC50 (MAPK11; cell material: Jurkat cells)	pIC50 (MAPK11; cell material: Jurkat lysate)	pIC50 (MAPK11; cell material: Lysate mix)	pIC50 (FGFR4)	pIC50 (DDR2)	pIC50 (MAPK14; cell material: Jurkat cells)	pIC50 (MAPK14; cell material: Jurkat lysate)	pIC50 (MAPK14; cell material: Lysate mix)	pIC50 (BMPR2; cell material: Jurkat cells)	pIC50 (BMPR2; cell material: Jurkat lysate)	pIC50 (BMPR2; cell material: Lysate mix)	pIC50 (IRAK1; cell material: Jurkat cells)	pIC50 (IRAK1; cell material: Jurkat lysate)	pIC50 (TESK1; cell material: Jurkat cells)	pIC50 (TESK1; cell material: Jurkat lysate)	pIC50 (TESK1; cell material: Lysate mix)	pIC50 (ACVR2B; cell material: Jurkat cells)	pIC50 (ACVR2B; cell material: Jurkat lysate)	pIC50 (ACVR2B; cell material: Lysate mix)	pIC50 (TP53RK; cell material: Jurkat cells)	pIC50 (TP53RK; cell material: Jurkat lysate)	pIC50 (TP53RK; cell material: Lysate mix)	pIC50 (IRAK1; cell material: Lysate mix)
O=C(NCCNC(=O)c1cc(Nc2cc(C3CC3)[nH]n2)nc(N2CCN(Cc3ccc(S(=O)(=O)F)cc3)CC2)n1)OC1CC/C=C/CCC1 (configuration not stated)	5.76	< 4.52	< 4.52	5.49	< 4.52	< 4.52	5.27	< 4.52	< 4.52	6.33	4.8	5.11	< 4.52	< 4.52	< 4.52	< 4.52	< 4.52	< 4.52	< 4.52	< 4.52	< 4.52	< 4.52	< 4.52	5.53	< 4.52	< 4.52	< 4.52	< 4.52	< 4.52	< 4.52	< 4.52	< 4.52	< 4.52	< 4.52	
Cc1cc(Nc2cc(C(=O)NCCNC(=O)OC3CC/C=C/CCC3)nc(N3CCN(Cc4ccc(S(=O)(=O)F)cc4)CC3)n2)n[nH]1 (configuration not stated)			< 4.52			< 4.52			< 4.52			< 4.52			< 4.52	< 4.52	< 4.52			< 4.52			< 4.52					< 4.52			< 4.52			< 4.52	< 4.52
CCNC(=O)c1cc(Nc2cc(C3CC3)[nH]n2)nc(N2CCN(Cc3ccc(S(=O)(=O)F)cc3)CC2)n1			5.67			< 4.52			5.73			5.83			< 4.52	< 4.52	4.57			< 4.52			< 4.52					< 4.52			< 4.52			< 4.52	5.72
CCNC(=O)c1cc(Nc2cc(C)[nH]n2)nc(N2CCN(Cc3ccc(S(=O)(=O)F)cc3)CC2)n1			< 4.52			< 4.52			< 4.52			4.8			< 4.52	< 4.52	< 4.52			< 4.52			< 4.52					< 4.52			< 4.52			< 4.52	4.8
C#CCNC(=O)c1cc(Nc2cc(C3CC3)[nH]n2)nc(N2CCN(Cc3ccc(S(=O)(=O)F)cc3)CC2)n1	6.2	5.12	5.82		< 4.52	< 4.52	6.02	< 4.52	5.72	6.44	5.44	6.2		< 4.52	< 4.52	< 4.52	< 4.52	< 4.52	< 4.52	< 4.52	5.72	< 4.52	< 4.52	< 4.52	5.37		< 4.52	< 4.52		< 4.52	< 4.52	< 4.52	< 4.52	< 4.52	5.96
C#CCNC(=O)c1cc(Nc2cc(C)[nH]n2)nc(N2CCN(Cc3ccc(S(=O)(=O)F)cc3)CC2)n1			< 4.52			< 4.52			< 4.52			5			< 4.52	< 4.52	< 4.52			< 4.52			< 4.52					< 4.52			< 4.52			< 4.52	5.11
